Measurements as given in patent US20240207263A1, “SELECTIVE MODULATORS OF ATAXIA TELA[…] (ATM) KINASE AND USES THEREOF” (priority 2021, published 2024).
pIC50: −log10 of the molar value. Where two headings read alike, the source gives them in different places.

Columns and labels:
ATM = ATM (Homo sapiens (Human), UniProt Q13315); experiment: biochemical; type: biochemical; details: read-out: ATM IC50
Description: Assay a): ATM Biochemical Potency
Data was collected by Caliper.

[1] = test system: phosp-KAP1 in MCF-7 cells; experiment: phosp-KAP1 MCF-7 cellular potency assay (Assay f); type: cell-based; details: Homo sapiens
Procedure: Assay f): phosp-KAP1 MCF-7 Cellular Potency
MCF-7 cells were seeded to a 384-well cell-culture plate, 25 μl/well which were incubated at 37° C. and 5% CO2 for 24 hr. Test compounds were added to the 384-well plates. Etoposide at final concentration of 100 μM was then added to each well except Vehicle control wells, which were incubated at 37° C. and 5% CO2 for 1 hour. After medium removal, cells were fixed by the addition of 25 μl/well of 8% paraformaldehyde in PBSA and incubated for 20 minutes at room temperature. After the plates were rinsed 3 times with PBSA, 50 ul permeabilization buffer (0.1% Triton X-100 in PBS) was added and the plates were incubated for 20 minutes at room temperature. After the plates were rinsed with PBSA, block the cells by adding 50 μl of Odyssey Blocking Buffer in 384-well plate and then incubate for 1.5 hours at room temperature. Remove blocking buffer by Plate washer (BioTek ELx405 select CW). […] The plates were rinsed 5 times with PBST (0.1% Tween-20 in PBS).
• 1) Fluorescence intensity (FI) was detected for each well. • 2) % inhibition is calculated as follow:
[formula] • FIpositive: The average FI for the positive controls across the plate. • FIvehicle: The average FI for negative controls across the plate. • 3) Calculate IC50 and Plot effect-dose curve of compounds: • Calculate IC50 by fitting % inhibition values and log of compound concentrations to nonlinear regression (dose response−variable slope) with Graphpad prism 6.0.
Y=Bottom+(Top−Bottom)/(1+10^((Log IC50−X)*HillSlope)) • X: log of compounds concentration; Y: % inhibition

[2] = target: ATM (phospho-ATM Ser1981) in SN38 treated HT-29 cells (Homo sapiens (Human), UniProt Q13315); experiment: cell-based; details: HT-29 cells, SN-38; read-out: SN-38 HT-29 cellular IC50
Chain of ATM (phospho-ATM Ser1981) in SN38 treated HT-29 cells (Q13315 whole entry, looked up): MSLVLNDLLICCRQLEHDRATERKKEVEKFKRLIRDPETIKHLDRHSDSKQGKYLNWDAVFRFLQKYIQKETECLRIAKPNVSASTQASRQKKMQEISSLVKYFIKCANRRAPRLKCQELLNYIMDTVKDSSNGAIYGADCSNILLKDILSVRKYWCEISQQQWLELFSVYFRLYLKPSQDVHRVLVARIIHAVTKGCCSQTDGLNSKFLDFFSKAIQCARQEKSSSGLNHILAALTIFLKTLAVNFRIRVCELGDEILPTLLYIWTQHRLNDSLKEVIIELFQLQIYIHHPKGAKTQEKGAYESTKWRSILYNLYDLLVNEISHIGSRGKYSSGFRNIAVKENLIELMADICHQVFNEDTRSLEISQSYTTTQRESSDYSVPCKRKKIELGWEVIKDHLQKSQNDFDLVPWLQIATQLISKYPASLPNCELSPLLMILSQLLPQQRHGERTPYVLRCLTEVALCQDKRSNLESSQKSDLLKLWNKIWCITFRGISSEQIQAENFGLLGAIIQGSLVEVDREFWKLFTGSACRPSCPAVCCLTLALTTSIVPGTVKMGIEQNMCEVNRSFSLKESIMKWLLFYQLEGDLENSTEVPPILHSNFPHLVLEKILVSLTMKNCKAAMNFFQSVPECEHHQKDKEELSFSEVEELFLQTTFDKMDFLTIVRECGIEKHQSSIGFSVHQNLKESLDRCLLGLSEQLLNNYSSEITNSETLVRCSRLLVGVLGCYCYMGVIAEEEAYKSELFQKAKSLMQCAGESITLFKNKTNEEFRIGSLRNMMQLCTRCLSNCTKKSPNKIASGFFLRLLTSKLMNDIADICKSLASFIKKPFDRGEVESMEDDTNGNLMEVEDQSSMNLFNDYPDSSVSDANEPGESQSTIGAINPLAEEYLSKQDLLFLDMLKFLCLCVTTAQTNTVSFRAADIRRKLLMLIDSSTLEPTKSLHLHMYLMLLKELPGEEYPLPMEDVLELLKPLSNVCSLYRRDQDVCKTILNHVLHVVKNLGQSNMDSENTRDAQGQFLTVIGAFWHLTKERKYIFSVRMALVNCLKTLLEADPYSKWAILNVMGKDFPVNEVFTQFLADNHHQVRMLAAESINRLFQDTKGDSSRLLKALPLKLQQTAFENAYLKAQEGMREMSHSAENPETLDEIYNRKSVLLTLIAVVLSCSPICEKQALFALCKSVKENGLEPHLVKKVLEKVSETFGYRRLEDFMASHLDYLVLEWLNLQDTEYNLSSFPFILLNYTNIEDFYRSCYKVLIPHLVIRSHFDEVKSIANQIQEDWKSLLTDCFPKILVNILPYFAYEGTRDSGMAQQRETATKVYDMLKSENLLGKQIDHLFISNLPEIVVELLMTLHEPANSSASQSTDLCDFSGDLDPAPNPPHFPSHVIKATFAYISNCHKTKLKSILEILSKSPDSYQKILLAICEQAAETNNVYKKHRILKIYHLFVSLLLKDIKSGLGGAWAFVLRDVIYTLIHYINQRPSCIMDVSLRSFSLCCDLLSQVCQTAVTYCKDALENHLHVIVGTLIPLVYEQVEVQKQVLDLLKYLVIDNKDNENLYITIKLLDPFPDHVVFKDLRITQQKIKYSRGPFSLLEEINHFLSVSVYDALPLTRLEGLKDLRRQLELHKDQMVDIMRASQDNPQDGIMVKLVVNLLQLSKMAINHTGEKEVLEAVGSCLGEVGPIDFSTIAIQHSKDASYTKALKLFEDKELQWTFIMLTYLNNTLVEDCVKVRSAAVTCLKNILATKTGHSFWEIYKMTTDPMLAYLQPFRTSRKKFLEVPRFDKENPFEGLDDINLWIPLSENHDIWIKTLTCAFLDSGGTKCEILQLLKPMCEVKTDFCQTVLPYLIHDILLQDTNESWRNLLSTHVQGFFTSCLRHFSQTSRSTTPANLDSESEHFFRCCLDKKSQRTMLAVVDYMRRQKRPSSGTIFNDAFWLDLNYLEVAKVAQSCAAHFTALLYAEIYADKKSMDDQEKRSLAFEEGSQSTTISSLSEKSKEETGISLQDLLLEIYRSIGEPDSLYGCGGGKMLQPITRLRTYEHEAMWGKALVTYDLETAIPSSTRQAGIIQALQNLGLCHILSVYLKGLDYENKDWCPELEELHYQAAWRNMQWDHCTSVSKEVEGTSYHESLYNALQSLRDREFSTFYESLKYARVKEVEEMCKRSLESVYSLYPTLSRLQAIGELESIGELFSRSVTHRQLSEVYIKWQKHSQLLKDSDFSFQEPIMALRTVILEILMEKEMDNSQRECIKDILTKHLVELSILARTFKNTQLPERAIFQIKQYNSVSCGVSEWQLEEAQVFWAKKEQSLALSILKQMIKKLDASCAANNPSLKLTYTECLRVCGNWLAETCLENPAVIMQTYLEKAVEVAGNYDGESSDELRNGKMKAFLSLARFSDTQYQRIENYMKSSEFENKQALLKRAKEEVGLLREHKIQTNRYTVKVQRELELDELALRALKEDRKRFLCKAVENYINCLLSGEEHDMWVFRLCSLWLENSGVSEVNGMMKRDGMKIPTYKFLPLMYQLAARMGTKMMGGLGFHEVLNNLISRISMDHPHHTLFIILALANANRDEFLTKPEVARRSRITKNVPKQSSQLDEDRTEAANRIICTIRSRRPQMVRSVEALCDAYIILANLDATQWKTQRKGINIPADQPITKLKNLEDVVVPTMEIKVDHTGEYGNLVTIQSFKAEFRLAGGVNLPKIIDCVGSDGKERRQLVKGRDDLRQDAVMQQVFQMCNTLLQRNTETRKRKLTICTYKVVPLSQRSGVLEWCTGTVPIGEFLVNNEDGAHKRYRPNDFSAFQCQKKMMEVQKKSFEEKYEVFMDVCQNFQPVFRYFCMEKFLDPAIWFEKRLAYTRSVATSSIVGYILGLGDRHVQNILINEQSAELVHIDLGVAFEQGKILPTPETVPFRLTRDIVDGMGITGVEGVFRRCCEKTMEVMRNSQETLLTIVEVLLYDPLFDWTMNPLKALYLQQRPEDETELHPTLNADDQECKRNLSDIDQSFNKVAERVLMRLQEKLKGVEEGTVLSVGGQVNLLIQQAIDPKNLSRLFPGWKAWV
Procedure: Assay g): ATM SN-38 HT-29 Cellular Potency
SN38 causes single strand DNA breaks (SSBs) which are converted to double strand breaks (DSBs) during replication. ATM plays role of repairing DSBs. Inhibition of ATM was evaluated in SN38 treated HT-29 cells (ATCC, Cat #HTB-38) by high-Content Imaging System
The graphical views were then generated using Prism 7.0 (Graphpad).

FaDu xenograft = FaDu xenograft model, radiation combination (Assay i); type: in vivo, mouse; details: total IR 30 Gy (3 cycles), combo with IR
Procedure: Assay i): FaDu Xenograft Model
Cell culture: FaDu tumor cells were cultured in an EMEM medium containing inactivated 10% fetal bovine serum, 100 U/ml penicillin and 100 μg/ml streptomycin in a 37° C., 5% CO2 incubator.
Inoculation and grouping: Xenografts were established by implantation of 100 μl of Fadu tumor cell suspension (5×10^6 cells/mouse) subcutaneously into the right flank of female immune-compromised BALB/c nude mice at least 6 weeks of age. Tumours were measured in two dimensions with calipers and the tumour volume was calculated using the following formula: tumor volume=(length×width^2)×0.5. When the average tumor volume reached 100 to 150 mm^3, tumour-bearing mice were randomized into treatment groups.
Treatment and tumor assessment: Animals received 3 to 6 cycles of treatment with compounds combined with radiation therapy. Each cycle included 5 consecutive treatment day plus 2 days' rest. Ionizing radiation was administered using a fractionated schedule of 2 Gy per day administered over 5 consecutive days (total radiation dose=10 Gy/cycle). Compound was given orally 10 minutes before irradiation. The tumour volume and body weight of the mice were measured twice weekly.
Statistical Analysis: The One-Way ANOVA test was used for statistical analysis of tumor volume between groups, and p<0.05 was considered as a significant difference.

[3] = MCF7, MCF-7 cells, etoposide, read-out: Etoposide MCF-7 cellular IC50
[4] = MCF7, read-out: Etoposide MCF-7 cellular IC50

Chain of ATM (Q13315 whole entry, looked up): as above

Compound	pIC50 (ATM)	pIC50 [1, 3]	pIC50 [2]	pIC50 [1, 4]	Inhibition (% TGI) Combo (FaDu xenograft; 50 mg/kg PO. TID) [% TGI]	Inhibition (% TGI) Combo (FaDu xenograft; 150 mg/kg PO. TID) [% TGI]
CO[C@@H]1CCN(CCO[C@H](C)c2ccc(-c3ccc4nnc5c(c4c3)n(C(C)C)c(=O)n5C)cn2)C1 [Example 57, 1-isopropyl-8-(6-((R)-1-(2-((R)-3-methoxypyrrolidin-1-yl)ethoxy)ethyl)pyridin-3-yl)-3-methyl-1H-imidazo[4,5-c]cinnolin-2(3H)-one]	8.38	7.70	7.72			
CC(C)n1c(=O)n(C)c2nnc3ccc(-c4ccc([C@@H](C)OCCN5CCC(C)(C)CC5)nc4)cc3c21 [Example 73, (R)-8-(6-(1-(2-(4,4-dimethylpiperidin-1-yl)ethoxy)ethyl)pyridin-3-yl)-1-isopropyl-3-methyl-1H-imidazo[4,5-c]cinnolin-2(3H)-one]	8.46		8.04	8.04		
CC(C)n1c(=O)n(C)c2nnc3ccc(-c4ccc([C@@H](C)OCCN5CCC(F)CC5)nc4)cc3c21 [Example 69, (R)-8-(6-(1-(2-(4-fluoropiperidin-1-yl)ethoxy)ethyl)pyridin-3-yl)-1-isopropyl-3-methyl-1H-imidazo[4,5-c]cinnolin-2(3H)-one]	8.28	7.47	7.33			
CC(C)n1c(=O)n(C)c2nnc3ccc(-c4ccc(COCCN5CCC(C)(C)C5)nc4)cc3c21 [Example 36, 8-(6-((2-(3,3-dimethylpyrrolidin-1-yl)ethoxy)methyl)pyridin-3-yl)-1-isopropyl-3-methyl-1H-imidazo[4,5-c]cinnolin-2(3H)-one]	8.33		7.70	7.70		
CO[C@H]1C[C@@H](n2c(=O)n(C)c3nnc4ccc(-c5ccc(COCCN6CC7CC7C6)nc5)cc4c32)C1 (stereo partly drawn) [Example 175, 8-(6-((2-(3-azabicyclo[3.1.0]hexan-3-yl)ethoxy)methyl)pyridin-3-yl)-1-(cis-3-methoxycyclobutyl)-3-methyl-1H-imidazo[4,5-c]cinnolin-2(3H)-one]	7.60	7.48	6.77			
CO[C@H]1CCN(CCOCc2ccc(-c3ccc4nnc5c(c4c3)n(C(C)C)c(=O)n5C)cn2)C1 [Example 43, (S)-1-isopropyl-8-(6-((2-(3-methoxypyrrolidin-1-yl)ethoxy)methyl)pyridin-3-yl)-3-methyl-1H-imidazo[4,5-c]cinnolin-2(3H)-one]	7.92		7.04			
CC(C)n1c(=O)n(C)c2nnc3ccc(-c4ccc(COCCN5CCC(F)CC5)nc4)cc3c21 [Example 5, 8-(6-((2-(4-fluropiperidin-1-yl)ethoxy)methyl)pyridin-3-yl)-1-isopropyl-3-methyl-1H-imidazo[4,5-c]cinnolin-2(3H)-one]	7.85	7.57	6.89		79.6 ± 2.78	91.9 ± 1.16
CC(C)n1c(=O)n(C)c2nnc3ccc(-c4ccc(COCCN5CC6CC6C5)nc4)cc3c21 (stereo not shown) [Example 1, 8-(6-((2-(3-azabicyclo[3.1.0]hexan-3-yl)ethoxy)methyl)pyridin-3-yl)-1-isopropyl-3-methyl-1H-imidazo[4,5-c]cinnolin-2(3H)-one]	7.80			7.40	76.8 ± 2.72	92.0 ± 1.31
CC(C)n1c(=O)n(C)c2nnc3cc(F)c(-c4ccc(COCCN5CCC(F)CC5)nc4)cc3c21 [Ref compd 1, 7-fluoro-8-(6-((2-(4-fluoropiperidin-1-yl)ethoxy)methyl)pyridin-3-yl)-1-isopropyl-3-methyl-1H-imidazo[4,5-c]cinnolin-2(3H)-one, reference compound]	7.60		6.56			
